Consider eleven compounds from patent US11198898B2, “Chemical tools for imaging phospholipase D activity” (CORNELL UNIVERSITY, priority 2017, dated 2021).

Where two headings read alike, the source gives them in different places. A value given as a limit tells only on which side of the number the result lay.

Test [1] concerns PLD activity in HeLa cells. Description: Imaging of PLD-mediated PA synthesis in fixed HeLa cells with alkynols, CuAAC with Az488, confocal microscopy. Type of test: cell-based, human. How it is done: To image sites of PLD-mediated PA synthesis, HeLa cells were treated with each of the three longer-chain alkynols and again stimulated PLD activity acutely with PMA, in the absence or presence of FIPI. Rather than proceeding with a whole-cell lipid extraction, cells were fixed with paraformaldehyde and subjected to CuAAC labeling with Az488. […] The observed labeling pattern was complex, likely the result of PA synthesis on membranes of multiple intracellular compartments. To determine the subcellular locations of the hexynol-based labeling, a series of colocalization studies were performed with markers of various organelle membranes. In these studies, HeLa cells were transfected with plasmids encoding fluorescent protein fusions to constituents of several organellar membranes and then the PA labeling protocol was performed using 1 mM hexynol and, where appropriate, either Az488 or an azide-containing tetramethylrhodamine derivative.

In test [2] the test system is endogenous PLD activity in HeLa cells. Description: Azidoalcohol labelling of PMA-stimulated HeLa cells, lipid extraction, SPAAC with BODIPY-cyclooctyne 1, HPLC. It is filed as cell-based, human. The conditions noted are these: for decrease of the signal: isoform-selective inhibitor during labeling.
Test [3] relates to basal, endogenous PLD activity in HeLa cells. Nature of the test: Basal PLD activity: HeLa cells with 1 mM AzProp, lipid extraction, SPAAC with (1), HPLC. Type of test: cell-based, human. How it is done:
Up to this point, the efforts focused on monitoring acute PLD activation in response to a stimulus, by using PMA as a model pharmacological agent to mimic activation of several signal transduction pathways. In the absence of a stimulus, however, it is known that PLD enzymes display a much lower but appreciable level of basal activity.
To accomplish this, HeLa cells were treated with 1 mM AzProp, followed by lipid extraction, SPAAC labeling with (1), and HPLC analysis.

Test [4] relates to commercially available PLD. Description: In vitro transphosphatidylation of DOPC with alkynols by a commercially available PLD, CuAAC with Az488, HPLC-fluorescence/ESI-MS. Type of test: biochemical. The conditions noted are these: incubated with DOPC and PLD.
Test [5] deals with mammalian PLDs in HeLa cells. Description: Alkynol labelling of PMA-stimulated HeLa cells, lipid extraction, CuAAC with Az488, HPLC-fluorescence. The conditions noted are these: for extent of incorporation into phosphatidyl alcohols compared to the shorter alkynols: at the same concentration. It is filed as cell-based, human. On the procedure:
Further experiments evaluated whether mammalian PLDs would accept alkynols as substrates within live cells. HeLa cells were treated with each of the five alkynols for 20 minutes, stimulated acute PA biosynthesis pharmacologically using phorbol 12-myristate 13-acetate (PMA) (McDermott M, et al., Biochem. Cell Biol. 2004 February; 82(1):225-53), and then isolated total cellular lipid extracts. Following CuAAC labeling with Az488, the samples were analyzed by HPLC coupled to fluorescence detection. The HPLC-fluorescence results for the five alkynols (denoted as 1, 2, 3, 4, or 5 in panels 1-5, respectively) are shown in FIG. 2B.
While all five alkynols were accepted as transphosphatidylation substrates in HeLa cells, they were processed by cellular PLDs with different efficiencies. […] The molecular identities of the fluorescently labeled phosphatidyl alcohols (PA analogs) were verified by analyzing labeled extracts from cells treated with each of the three longer-chain alkynols by HPLC followed by ESI-MS.
This robust labeling with pentynol, hexynol, and heptynol led to further experiments to investigate whether the dose of alkynol could be lowered. The initial concentration of 12.9 mM alkynol corresponded to the low end of the concentration range of 0.1-0.5 mol % that is typically used in the traditional TLC-based butanol transphosphatidylation assay. Such high concentrations of alcohol, however, have several negative consequences. First, they are sufficient to compete with water in the PLD active site and reduce the ability of PLDs to synthesize PA, thus impacting PA-dependent signaling.

For test [6], the system named is PLD activity in live cells. It is filed as cell-based.
The subject of test [7] is basal PLD activity in HeLa cells. Nature of the test: Basal PLD activity in live cells: AzProp/SPAAC labelling, confocal microscopy with isoform-selective inhibitors. It is filed as cell-based, human. The conditions noted are these: for effect of inhibitor on ER- and Golgi-derived fluorescence: HeLa cells; for effect of inhibitor on the high-fluorescence cell population: confocal microscopy. On the procedure:
To image sites of basal PLD activity within live cells, cells were treated with 1 mM AzProp for 2 hours and rinsed. The SPAAC reaction was then performed using (1).
Further experiments then examined the distribution of basal PLD activity at both the cellular and subcellular levels. […] Thus, at the cellular level, the high fluorescence of a minority of cells can be attributed to PLD1 activity, and the moderate fluorescence in the majority of cells to PLD2.
The subcellular localization of AzProp-marked basal PLD activity appeared to be similar to that of AzProp-marked, PMA-stimulated PLD enzymes, that is localized to a mixture of ER, Golgi, endosomal, and lysosomal membranes. Isoform-selective inhibitors were used to probe the relative contributions of each PLD isoform to PA biosynthetic activity on different organelle membranes. […] Thus, it can be concluded that, in HeLa cells, the bulk of ER-localized, basal PLD activity is due to PLD1, whereas PLD activity on Golgi membranes is due to a roughly equal mix of PLD1 and PLD2.

Where [8] appears, read: HeLa cells, PMA, SPAAC with BODIPY-cyclooctyne 1.
The mark [9] stands for this setting: PMA-stimulated HeLa cells, HPLC.

On to `O=C(NCCN1CCC(n2c(=O)[nH]c3ccccc32)CC1)c1cc2cc(F)ccc2[nH]1` [FIPI, 5-fluoro-2-indolyl deschlorohalopemide, reference compound], for which, in test [1] (PMA, CuAAC with Az488), the “labeling in cells treated with alkynol and PLD inhibitor (negative control)” value was “minimal background labeling”. For the same compound, the “effect of inhibitor on fluorescent lipid species” value in test [2] (treatment of cells during the labeling procedure, PMA-stimulated) is “complete loss of the fluorescent lipid species”. Besides, in test [3] (unstimulated HeLa cells), the “effect of inhibitor on basal phosphatidyl alcohol production” value is recorded as “prevented phosphatidyl alcohol production”.

Take `C#CCO` [propynol]: the “formation of the expected fluorescent phosphatidyl alcohol product (PLD substrate in vitro)” value (shortened to “formation”) in test [4] is “confirmed the identity of the expected fluorescent phosphatidyl alcohol products”.

For the compound `[N-]=[N+]=NCCCCCO` [AzPent, 5-azido-1-pentanol], the “fluorescent lipid species by HPLC” value in test [2] (setting [8]) is reported as “presence of fluorescent lipid species”. Besides, the “efficacy as PLD substrate” value in test [2] (setting [9]) is listed as “performed roughly equivalently”.

Regarding `C#CCCO` [3-butyn-1-ol], the “formation” value in test [4] is on record as “confirmed the identity of the expected fluorescent phosphatidyl alcohol products”.

As for `[N-]=[N+]=NCCCCO` [AzBut, 4-azido-1-butanol], in test [2] (setting [8]), the “fluorescent lipid species by HPLC” value is reported as “presence of fluorescent lipid species”. Moreover, the “efficacy as PLD substrate” value in test [2] (setting [9]) is recorded as “performed roughly equivalently”.

As to `C#CCCCCCO` [heptynol, 6-heptyn-1-ol], the “formation” value in test [4] is “confirmed the identity of the expected fluorescent phosphatidyl alcohol products”. The “extent of incorporation into phosphatidyl alcohols compared to the shorter alkynols” value (“extent … compared to the shorter alkynols” for short) in test [5] is recorded as “incorporated to a greater extent into phosphatidyl alcohols”.

For `[N-]=[N+]=NCCO` [AzEt, 2-azidoethanol], in test [2], the “efficacy as PLD substrate” value was “poorer PLD substrate” and the “fluorescent lipid species by HPLC” value was “presence of fluorescent lipid species”. Further, in test [6], the “signal-to-background among the azidoalcohols” value was “highest”.

Regarding `C[C@@H](CN1CCC(n2c(=O)[nH]c3cc(Br)ccc32)CC1)NC(=O)[C@@H]1C[C@H]1c1ccccc1` [VU0359595], in test [2] (PMA-stimulated HeLa cells), the “decrease of the signal” value is on record as “approximately 75%”. The “share of the unstimulated PLD activity attributed to the inhibited isoform” value in test [3] was “roughly half”. Further, in test [7], the “effect of inhibitor on ER- and Golgi-derived fluorescence” value is recorded as “selective disappearance of most of the ER-derived fluorescence but only a portion of the Golgi-derived fluorescence”; the “effect of inhibitor on the high-fluorescence cell population” value is on record as “disappearance of high-fluorescence cells”.

On to `O=C(NCCN1CCC2(CC1)C(=O)NCN2c1cccc(F)c1)c1ccc2ccccc2c1` [VU0364739], for which the “decrease of the signal” value in test [2] (PMA-stimulated HeLa cells) is approximately 25%. In test [3], the “share of the unstimulated PLD activity attributed to the inhibited isoform” value is listed as “roughly half”. For the same compound, in test [7], the “effect of inhibitor on ER- and Golgi-derived fluorescence” value is recorded as “decrease in Golgi-derived fluorescence but had minimal effect on ER-derived fluorescence”; the “effect of inhibitor on the high-fluorescence cell population” value is on record as “did not eliminate the high-fluorescence population”.

For `C#CCCCO` [pentynol, 4-pentyn-1-ol], in test [4], the “formation” value is “confirmed the identity of the expected fluorescent phosphatidyl alcohol products”. Moreover, the “extent … compared to the shorter alkynols” value in test [5] is “incorporated to a greater extent into phosphatidyl alcohols”.

`C#CCCCCO` [hexynol, 5-hexyn-1-ol]: the “formation” value in test [4] is “confirmed the identity of the expected fluorescent phosphatidyl alcohol products”. Besides, the “alkynol concentration at which PA production could be detected in cells” value in test [5] (HPLC) was not below 100 µM. In addition, the “extent … compared to the shorter alkynols” value in test [5] is recorded as “incorporated to a greater extent into phosphatidyl alcohols”. Besides, in test [1] (confocal microscopy), the “alkynol concentration permitting detection of alkynol-dependent and FIPI-sensitive fluorescence” value was not below 100 µM; the “signal-to-background ratio among the three longer-chain alkynols” value is on record as “highest signal-to-background ratio”.
